Measured values reported in ChEMBL document CHEMBL1201862, “PubChem BioAssay data set” (2004).
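Interpolation was linear, between the two tested concentrations surrounding the appropriate level; five concentrations were tested over 48 hours in 96-well plates. GI50 marks 50% less growth.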 Activity calls are given as the source filed them. Cut-off read from the data, not from the text of the source: active = GI50 up to about 1.1 µM and inactive = higher.

Columns and labels:
Test in all cases: inhibition of tumour cell growth, NCI panel, 48 h
M14 = tested on: M14
NCI-H23 = tested on: NCI-H23
SK-OV-3 = tested on: SK-OV-3
RXF 393 = tested on: RXF 393
KM12 = tested on: KM12
CAKI-1 = tested on: CAKI-1
MDA-MB-435 = tested on: MDA-MB-435
HCC 2998 = tested on: HCC 2998
MCF7 = tested on: MCF7
DU-145 = tested on: DU-145
SF-539 = tested on: SF-539
SR = tested on: SR
U-251 = tested on: U-251
ACHN = tested on: ACHN
SF-295 = tested on: SF-295
CCRF-CEM = tested on: CCRF-CEM
UACC-62 = tested on: UACC-62
MDA-MB-231 = tested on: MDA-MB-231
SW-620 = tested on: SW-620
RPMI-8226 = tested on: RPMI-8226

Row | SMILES | GI50 (M14) | GI50 (NCI-H23) | GI50 (SK-OV-3) | GI50 (RXF 393) | GI50 (KM12) | GI50 (CAKI-1) | GI50 (MDA-MB-435) | GI50 (HCC 2998) | GI50 (MCF7) | GI50 (DU-145) | GI50 (SF-539) | GI50 (SR) | GI50 (U-251) | GI50 (ACHN) | GI50 (SF-295) | GI50 (CCRF-CEM) | GI50 (UACC-62) | GI50 (MDA-MB-231) | GI50 (SW-620) | GI50 (RPMI-8226)
1 | CC[C@@]1(O)C(=O)OCc2c1cc1n(c2=O)Cc2c-1nc1ccccc1c2/C=N\NC(=O)C(N)CO (stereo not given in full) | 0.492 µM (active) | 0.371 µM (active) | 2.36 µM (inactive) | 1.14 µM (inactive) | 5.92 µM (inactive) | 0.408 µM (active) | 4.25 µM (inactive) | 12.1 µM (inactive) | 0.27 µM (active) | 0.379 µM (active) | 0.138 µM (active) | 0.0386 µM (active) | 0.232 µM (active) | 0.191 µM (active) | 0.505 µM (active) | 0.0474 µM (active) | < 0.0395 µM (active) | 28.4 µM (inactive) | 1.62 µM (inactive) | 1.13 µM (inactive)
2 | CC1(C)OC2C(CO)OC(n3ccc(N)nc3=O)C2O1 (stereo not given) | > 100 µM (inactive) | > 100 µM (inactive) | > 100 µM (inactive) | > 100 µM (inactive) | > 100 µM (inactive) | > 100 µM (inactive) | > 100 µM (inactive) | > 100 µM (inactive) | > 100 µM (inactive) | > 100 µM (inactive) | > 100 µM (inactive) | > 100 µM (inactive) | > 100 µM (inactive) | > 100 µM (inactive) | > 100 µM (inactive) | > 100 µM (inactive) | > 100 µM (inactive) | > 100 µM (inactive) | > 100 µM (inactive) | > 100 µM (inactive)
3 | CC(=O)NCCC1CNc2ccccc21 (stereo not given) | > 100 µM (inactive) | > 100 µM (inactive) | > 100 µM (inactive) | > 100 µM (inactive) | > 100 µM (inactive) | > 100 µM (inactive) | > 100 µM (inactive) | > 100 µM (inactive) | > 100 µM (inactive) | > 100 µM (inactive) | > 100 µM (inactive) | > 100 µM (inactive) | > 100 µM (inactive) | > 100 µM (inactive) | > 100 µM (inactive) | > 100 µM (inactive) | > 100 µM (inactive) | > 100 µM (inactive) | > 100 µM (inactive) | > 100 µM (inactive)
4 | CCC(=O)NC(Nc1ccccc1F)(C(F)(F)F)C(F)(F)F | > 100 µM (inactive) | > 100 µM (inactive) | > 100 µM (inactive) | > 100 µM (inactive) | > 100 µM (inactive) | > 100 µM (inactive) | > 100 µM (inactive) | > 100 µM (inactive) | > 100 µM (inactive) | > 100 µM (inactive) | > 100 µM (inactive) | > 100 µM (inactive) | > 100 µM (inactive) | > 100 µM (inactive) | > 100 µM (inactive) | > 100 µM (inactive) | 40.6 µM (inactive) | > 100 µM (inactive) | > 100 µM (inactive) | > 100 µM (inactive)
5 | CCOc1ccc2nc(NC(=O)C(=O)C(C(=O)c3ccccc3-c3ccccc3)C3OC(=O)c4ccccc43)sc2c1 (stereo not given) | 27.6 µM (inactive) | 17.9 µM (inactive) | 25.9 µM (inactive) | 13.4 µM (inactive) | 8.93 µM (inactive) | 23.2 µM (inactive) | 25.4 µM (inactive) | 18.5 µM (inactive) | 21.2 µM (inactive) | 21.9 µM (inactive) | 8.32 µM (inactive) | 9.79 µM (inactive) | 15 µM (inactive) | 30.2 µM (inactive) | 21.6 µM (inactive) | 21.1 µM (inactive) | 16.4 µM (inactive) | 25.9 µM (inactive) | 26.6 µM (inactive) | 12.2 µM (inactive)
6 | CN(C)CCCCN1c2ccccc2Sc2ccc(C(=O)c3ccccc3)cc21 | 1.67 µM (inactive) | 6.59 µM (inactive) | 13 µM (inactive) | 1.22 µM (inactive) | 2.02 µM (inactive) | 2.19 µM (inactive) | 1.9 µM (inactive) | 1.83 µM (inactive) | 1.93 µM (inactive) | 3.63 µM (inactive) | 3.29 µM (inactive) | 3.83 µM (inactive) | 2.41 µM (inactive) | 2.94 µM (inactive) | 2.15 µM (inactive) | 2.27 µM (inactive) | 2.37 µM (inactive) | 2.11 µM (inactive) | 1.77 µM (inactive) | 2.24 µM (inactive)
7 | O=C(c1cccs1)N1CCN(C(=O)c2cccs2)C1=S | 3.83 µM (inactive) | 12.7 µM (inactive) | 15.6 µM (inactive) | 2.6 µM (inactive) | 3.23 µM (inactive) | 3.68 µM (inactive) | 2.88 µM (inactive) | 7.96 µM (inactive) | 3.18 µM (inactive) | 2.51 µM (inactive) | 1.81 µM (inactive) | 3.43 µM (inactive) | 5.92 µM (inactive) | 7.41 µM (inactive) | 16.4 µM (inactive) | 2.69 µM (inactive) | 5.89 µM (inactive) | 6.38 µM (inactive) | 5.01 µM (inactive) | 1.63 µM (inactive)
